In US20040024024A1, “Aromatic sulfone hydroxamates and their use as protease inhibitors” (priority 2001, published 2004):

Legend:
Test in all cases: In vitro MMP inhibition, IC50 determination (fluorogenic substrate I)
Assay type in all cases: biochemical
[1] = target: T1, Human recombinant MMP-14 (Homo sapiens, UniProt P50281)
T1 construct: The catalytic domain enzyme was expressed in E. coli inclusion bodies, solubilized in urea; made in house
Method in brief: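 Catalytic-domain MMP-14, expressed in E. coli and refolded, activated with APMA or trypsin; compounds incubated at room temperature with 4 μM fluorogenic substrate I (MCA-PLGL-Dpa-AR-NH2) in Tris/NaCl/CaCl2 buffer, pH 7.5. Fluorescence at ex 328/em 415 nm; IC50 from loss of fluorescence versus inhibitor concentration.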

[2] = target: T2, Human recombinant MMP-1 (Homo sapiens, UniProt P03956)
T2 construct: made in house; host or cells: MMP-1-transfected HT-1080 cells (spent media)
T2 sequence (P03956 100-469): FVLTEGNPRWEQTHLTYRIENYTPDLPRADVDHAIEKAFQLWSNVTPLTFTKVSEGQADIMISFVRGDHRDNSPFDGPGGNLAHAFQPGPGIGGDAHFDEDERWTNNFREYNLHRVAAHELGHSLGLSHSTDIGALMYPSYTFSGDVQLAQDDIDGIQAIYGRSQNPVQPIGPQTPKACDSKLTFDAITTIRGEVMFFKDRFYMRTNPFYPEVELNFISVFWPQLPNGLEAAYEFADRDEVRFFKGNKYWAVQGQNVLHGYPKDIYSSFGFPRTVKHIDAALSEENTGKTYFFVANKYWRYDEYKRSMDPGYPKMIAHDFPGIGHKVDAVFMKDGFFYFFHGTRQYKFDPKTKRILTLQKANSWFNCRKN
Method in brief: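 APMA- or trypsin-activated enzyme, purified from spent media of transfected HT-1080 cells, incubated at room temperature with 4 μM MCA-Pro-Leu-Gly-Leu-Dpa-Ala-Arg-NH2 and graded inhibitor in Tris buffer pH 7.5 (10 mM CaCl2, 0.05% Brij). Cleavage read by fluorescence (ex 328/em 415 nm); IC50 from fluorescence reduction versus inhibitor concentration.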

[3] = target: T3, Human recombinant MMP-13 (Homo sapiens, UniProt P45452)
T3 construct: made in house; host or cells: baculovirus / insect cells
Method in brief: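 Fluorescence at 415 nm (excitation 328 nm) reports Gly-Leu cleavage of 4 μM quenched methoxycoumarin peptide substrate I. Human recombinant MMP-13, activated by trypsin or APMA, was incubated at room temperature with varied inhibitor concentrations in pH 7.5 Tris/NaCl/CaCl2 buffer; IC50 derived from reduced fluorescence.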

[4] = target: T4, Human recombinant MMP-2 (Homo sapiens, UniProt P08253)
T4 construct: made in house; host or cells: MMP-2-transfected p2AHT2 cells
T4 sequence (P08253 110-660): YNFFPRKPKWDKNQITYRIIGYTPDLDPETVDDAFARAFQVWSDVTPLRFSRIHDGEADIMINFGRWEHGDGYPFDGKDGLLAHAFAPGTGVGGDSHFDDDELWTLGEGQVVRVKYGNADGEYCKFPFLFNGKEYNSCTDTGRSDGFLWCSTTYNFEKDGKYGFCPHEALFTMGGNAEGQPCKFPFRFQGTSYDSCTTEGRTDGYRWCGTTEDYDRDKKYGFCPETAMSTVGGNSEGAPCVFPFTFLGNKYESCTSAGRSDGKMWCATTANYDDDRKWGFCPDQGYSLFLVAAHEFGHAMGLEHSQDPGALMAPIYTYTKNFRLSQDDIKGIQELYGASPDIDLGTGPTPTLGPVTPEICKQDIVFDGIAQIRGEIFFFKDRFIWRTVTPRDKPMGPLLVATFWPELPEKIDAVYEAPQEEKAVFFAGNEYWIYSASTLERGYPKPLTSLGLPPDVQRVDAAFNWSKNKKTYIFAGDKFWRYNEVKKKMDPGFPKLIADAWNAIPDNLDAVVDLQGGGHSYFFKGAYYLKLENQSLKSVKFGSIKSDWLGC
Method in brief: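 APMA- or trypsin-activated recombinant MMP-2 was incubated at room temperature with serial inhibitor dilutions in Tris buffer pH 7.5 (100 mM NaCl, 10 mM CaCl2, 0.05% Brij), with DMSO from 1% stocks, and 4 μM substrate I. Cleavage was read by fluorescence at 328/415 nm; IC50 was taken from the loss of fluorescence versus inhibitor concentration.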

[5] = target: T5, Human recombinant MMP-9 (Homo sapiens, UniProt P14780)
T5 construct: made in house; host or cells: MMP-9-transfected HT1080 cells (spent media)
T5 sequence (P14780 107-707 limits assumed): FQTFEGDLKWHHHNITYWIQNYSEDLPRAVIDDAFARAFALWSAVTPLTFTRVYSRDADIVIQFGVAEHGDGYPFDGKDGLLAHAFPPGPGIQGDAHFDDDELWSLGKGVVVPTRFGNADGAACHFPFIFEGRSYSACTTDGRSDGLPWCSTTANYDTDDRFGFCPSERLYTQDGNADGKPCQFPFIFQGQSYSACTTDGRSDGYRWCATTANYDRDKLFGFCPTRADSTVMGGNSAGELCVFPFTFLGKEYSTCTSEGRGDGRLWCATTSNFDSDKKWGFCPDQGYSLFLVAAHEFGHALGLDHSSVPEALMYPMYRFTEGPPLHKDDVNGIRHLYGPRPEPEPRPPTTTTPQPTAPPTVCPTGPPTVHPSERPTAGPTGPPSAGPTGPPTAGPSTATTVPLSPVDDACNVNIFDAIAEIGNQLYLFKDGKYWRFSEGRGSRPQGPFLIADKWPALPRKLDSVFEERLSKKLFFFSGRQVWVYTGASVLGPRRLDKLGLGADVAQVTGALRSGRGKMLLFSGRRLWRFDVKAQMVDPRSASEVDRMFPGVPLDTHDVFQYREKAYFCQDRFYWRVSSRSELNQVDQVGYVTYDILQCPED
Method in brief: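 MMP-9 proenzyme purified from transfected HT1080 cell media, activated with APMA or trypsin. Compound dilutions in pH 7.5 Tris/NaCl/CaCl2 buffer with 0.05% polyoxyethylene 23 lauryl ether, incubated at room temperature with 4 μM MCA/Dpa substrate I. IC50 from fluorescence loss (ex 328, em 415 nm) versus inhibitor concentration.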

[6] = value outside parentheses (Ki in parenthesis)

Compound | IC50 ([1]; value outside parenthesis) | IC50 ([2]; value outside parenthesis) | IC50 ([3]; value outside parenthesis) | IC50 ([4]; value outside parenthesis) | IC50 ([5]; value outside parenthesis) | IC50 [1, 6] | IC50 [2, 6] | IC50 [3, 6] | IC50 [4, 6] | IC50 [5, 6]
O=C(NO)C1(S(=O)(=O)c2ccc(OCCCc3cccc(-c4ccccc4)c3)cc2)CCOCC1 [Example 269] | > 10000 nM | > 10000 nM | 1.8 nM | 898 nM | 2750 nM |  |  |  |  | 
CC1CC(C)CN(S(=O)(=O)CCCOc2ccc(S(=O)(=O)C3(C(=O)NO)CCOCC3)cc2)C1 (stereo not shown) [Example 271] | > 10000 nM | > 10000 nM | 2.9 nM | 8.7 nM | 532 nM |  |  |  |  | 
O=C(CCCOc1ccc(S(=O)(=O)C2(C(=O)NO)CCOCC2)cc1)NNC(=O)c1ccc(Cl)cc1 [Example 272] | > 10000 nM | 399 nM | 2.8 nM | 4.2 nM | 152 nM |  |  |  |  | 
COC(=O)CCCOc1ccc(S(=O)(=O)C2(C(=O)NO)CCOCC2)cc1 [Example 274] | > 10000 nM | 9860 nM | 4.1 nM | 15.4 nM | 33.6 nM |  |  |  |  | 
CC(CCOc1ccc(S(=O)(=O)C2(C(=O)NO)CCOCC2)cc1)C(=O)c1cccs1 (stereo not shown) [Example 276] | 7020 nM | 6670 nM | 2.8 nM | 17.4 nM | 196 nM |  |  |  |  | 
COc1ccc(C(=O)CCCCOc2ccc(S(=O)(=O)C3(C(=O)NO)CCN(C4CC4)CC3)cc2)cc1 [Example 277] | > 10000 nM | > 10000 nM | 0.2 nM | 3.5 nM | 41.5 nM |  |  |  |  | 
CC(C)(C)c1ccc(-c2nnc(CCCOc3ccc(S(=O)(=O)C4(C(=O)NO)CCOCC4)cc3)o2)cc1 [Example 278] | > 10000 nM | > 10000 nM | 3.7 nM | 208 nM | 494 nM |  |  |  |  | 
COc1cccc(-c2nnc(CCCOc3ccc(S(=O)(=O)C4(C(=O)NO)CCOCC4)cc3)o2)c1 [Example 280] | > 10000 nM | > 10000 nM | 1.5 nM | 170 nM | 2030 nM |  |  |  |  | 
O=C(NO)C1(S(=O)(=O)c2ccc(OCCSc3nc4cc(Cl)ccc4s3)cc2)CCOCC1 [Example 281] | > 10000 nM | > 10000 nM | 1.3 nM | 70.4 nM | 276 nM |  |  |  |  | 
COc1ccc2sc(SCCOc3ccc(S(=O)(=O)C4(C(=O)NO)CCOCC4)cc3)nc2c1 [Example 282] | > 10000 nM | > 10000 nM | 2.6 nM | 43.3 nM | 704 nM |  |  |  |  | 
O=C(NO)C1(S(=O)(=O)c2ccc(OCCCSc3nc4cc(Cl)ccc4s3)cc2)CCOCC1 [Example 284] | > 10000 nM | > 10000 nM | 1.1 nM | 10.1 nM | 18.5 nM |  |  |  |  | 
COc1ccc2sc(SCCCOc3ccc(S(=O)(=O)C4(C(=O)NO)CCOCC4)cc3)nc2c1 [Example 285] | > 10000 nM | > 10000 nM | 1.8 nM | 16.7 nM | 23.6 nM |  |  |  |  | 
Cc1cc(C)nc(SCCCOc2ccc(S(=O)(=O)C3(C(=O)NO)CCOCC3)cc2)n1 [Example 286] | > 10000 nM | > 10000 nM | 4 nM | 74.9 nM | 1130 nM |  |  |  |  | 
CCOc1ccc2nc(SCCCOc3ccc(S(=O)(=O)C4(C(=O)NO)CCOCC4)cc3)sc2c1 [Example 287] | > 10000 nM | > 10000 nM | 0.8 nM | 3.6 nM | 16.4 nM |  |  |  |  | 
O=C(NO)C1(S(=O)(=O)c2ccc(OCCCSc3nc4ccccc4s3)cc2)CCOCC1 [Example 288] | > 10000 nM | > 10000 nM | 0.8 nM | 2.3 nM | 10.6 nM |  |  |  |  | 
CN(CCCOc1ccc(S(=O)(=O)C2(C(=O)NO)CCOCC2)cc1)C(=O)c1ccc2ccccc2c1 [Example 289] | > 10000 nM | > 10000 nM | 10.1 nM | 2720 nM | > 10000 nM |  |  |  |  | 
CN(CCc1ccccc1)S(=O)(=O)CCCOc1ccc(S(=O)(=O)C2(C(=O)NO)CCOCC2)cc1 [Example 292] |  |  |  |  |  | > 10000 nM | 970 nM | 2.4 nM | 14.4 nM | 163 nM

Now from value to compound:

IC50 ([1]; value outside parenthesis) | IC50 ([2]; value outside parenthesis) | IC50 ([3]; value outside parenthesis) | IC50 ([4]; value outside parenthesis) | IC50 ([5]; value outside parenthesis) | IC50 [1, 6] | IC50 [2, 6] | IC50 [3, 6] | IC50 [4, 6] | IC50 [5, 6] | Compound
 |  |  |  |  | > 10000 nM | 6150 nM | 2.6 nM | 2.3 nM | 448 nM | O=C(NO)C1(S(=O)(=O)c2ccc(OCCCS(=O)(=O)C3CCCCC3)cc2)CCOCC1 [Example 293]
 |  |  |  |  | > 10000 nM | 4620 nM | 4.3 nM | 100 nM | 448 nM | Cc1cc(-c2nnc(CCCOc3ccc(S(=O)(=O)C4(C(=O)NO)CCOCC4)cc3)o2)ccc1OC(C)C [Example 294]
 |  |  |  |  | > 10000 nM | > 10000 nM | 2.6 nM | 15.6 nM | 172 nM | CCCC(=O)C(C)CCOc1ccc(S(=O)(=O)C2(C(=O)NO)CCOCC2)cc1 (stereo not shown) [Example 295]
 |  |  |  |  | 6560 nM | 6810 nM | 0.5 nM | 8.1 nM | 64.6 nM | O=C(CCCOc1ccc(S(=O)(=O)C2(C(=O)NO)CCOCC2)cc1)c1cccs1 [Example 297]
 |  |  |  |  | 320 nM | 3660 nM | < 0.1 nM | 0.2 nM | 9.1 nM | COc1ccc(CC(=O)CCCOc2ccc(S(=O)(=O)C3(C(=O)NO)CCOCC3)cc2)cc1 [Example 301]
 |  |  |  |  | 94.9 nM | 2730 nM | 0.1 nM | 0.2 nM | 2.9 nM | O=C(CCCOc1ccc(S(=O)(=O)C2(C(=O)NO)CCOCC2)cc1)Cc1ccc(Cl)cc1 [Example 302]
 |  |  |  |  | > 10000 nM | > 10000 nM | 1.7 nM | 92.9 nM | 185 nM | COc1ccc(C(=O)C(C)CCOc2ccc(S(=O)(=O)C3(C(=O)NO)CCOCC3)cc2)cc1 (stereo not shown) [Example 306]
 |  |  |  |  | > 10000 nM | 8130 nM | 4.5 nM | 135 nM | 139 nM | N#Cc1ccc(N2CCN(CCCOc3ccc(S(=O)(=O)C4(C(=O)NO)CCOCC4)cc3)C2=O)cc1 [Example 307]
 |  |  |  |  | > 10000 nM | > 10000 nM | 3.7 nM | 176 nM | 1600 nM | C[C@@H]1[C@H](c2ccccc2)OC(=O)N1CCCOc1ccc(S(=O)(=O)C2(C(=O)NO)CCOCC2)cc1 [Example 308]
 |  |  |  |  | > 10000 nM | > 10000 nM | 1.8 nM | 135 nM | 1560 nM | C[C@H]1[C@@H](c2ccccc2)OC(=O)N1CCCOc1ccc(S(=O)(=O)C2(C(=O)NO)CCOCC2)cc1 [Example 309]
 |  |  |  |  | > 10000 nM | > 10000 nM | 3 nM | 32 nM | 1980 nM | CC(C)(C)C1CCN(S(=O)(=O)CCCOc2ccc(S(=O)(=O)C3(C(=O)NO)CCOCC3)cc2)CC1 [Example 310]
 |  |  |  |  | > 10000 nM | 2680 nM | 13.6 nM | 2840 nM | 692 nM | CCCCCc1ccc(-c2nnc(CCCOc3ccc(S(=O)(=O)C4(C(=O)NO)CCOCC4)cc3)o2)cc1 [Example 316]
